The source of these data is patent publication USRE43274E1, “Fluorinated photosensitizers related to chlorins and bacteriochlorins for photodynamic therapy” (Health Research, Inc., priority 2002, dated 2012).

Data set [1] is described as follows: Electronic absorption spectra in dichloromethane. It counts as physicochemical. As to the method: The electronic absorption spectra of PHOTOFRIN® (a porphyrin analog), HPPH (a chlorin bearing a five-membered isocyclic ring) and the purpurinimide 9 (a chlorin with an expanded, six-membered fused imide ring) were measured in dichloromethane at the same molar concentrations.

The test system of data set [2] is RIF tumors. The data set is described as follows: In vivo photosensitizing (PDT) efficacy, tumor response in C3H mice transplanted with RIF tumors. The arrangement: species or system mouse. On the procedure:
In brief, C3H/HEJ mice were subjected to intradermal injection with 2×10^5 RIF cells in […] HBSS w/o Ca^+2 and magnesium, into the flank and allowed to grow until they were 4-5 mm in diameter. The day before tumors were treatment size, the mice were injected with variable doses of substantially pure photosensitizers (1.0 mg/kg, 0.4 mg/kg). […] The mice (6 mice/group in two groups) were checked daily, the tumors were measured using two orthogonal measurements L and W (perpendicular to L) and the volumes were calculated using the formula V=L×W^2/2 and recorded. Mice were considered cured if there was no palpable tumor at 90 days post-PDT treatment.
In the control group, six mice were exposed to light without injecting any photosensitizer.
The in vivo photosensitizing efficacy of bacteriochlorins 16 and 18 was determined in C3H mice (5 mice/group) at variable concentration up to 1.0 μmol/Kg.

Data set [3] is described as follows: Stability of Schiff base 17 / amine 18 (in vivo reflectance spectroscopy). Conditions: 17: in vivo, converted into acetyl analog 15, determined by in vivo reflectance spectroscopy. As to the method: For example, when the reaction was performed at elevated temperature, the N-fluorinated derivative 15 and the corresponding Schiff base 17 (obtained from the reaction of the 3-acetyl group with an amine) was isolated in almost equal ratio. However, at low temperature, 3-acetyl-N-substituted-bacteriopurpurinimide 15 was isolated as a major product. Bacteriochlorin 15 on reaction with sodium borohydride and then with HBr gas followed by a reaction with n-butyl alcohol produced the corresponding butyl ether derivative 16. […] However, reduction of 17 with sodium borohydride at room temperature produced stable amine 18. See Scheme 2.

The mark [4] stands for this setting: dose 1.0 μmol/Kg, day 90, C3H mice.

On to HPPH, for which, in data set [1], the “red-shift compared with PHOTOFRIN” value stood at 30 nm. Further, in data set [1] (same molar concentrations), the “ε (long wavelength absorption)” value is recorded as 45,000 and the “λmax (long wavelength absorption)” value is reported as 660 nm.
Turning to `CCC1c2cc3[nH]c4c(c5nc(cc6[nH]c(cc(n2)C1C)c(C(C)NCc1cc(C(F)(F)F)cc(C(F)(F)F)c1)c6C)[C@@H](C)[C@@H]5CCC(=O)OC)C(=O)N(Cc1cc(C(F)(F)F)cc(C(F)(F)F)c1)C(=O)c4c3C` (stereo partly shown) [compound 18], in data set [2] (setting [4]), the mice tumor free is 3/5 and the tumor response is on record as 60%. The stability result in data set [3] is recorded as “stable”.
On to “purpurin-18-N-butyl-3-O-{1′-3″,5″-bis(trifluoromethyl)-benzyl ether}imide [compound 12]”, for which, in data set [2] (dose 0.4 mg/kg, light 706 nm, 135 J/cm2 at 24 hours post-injection, day 90, C3H/HeJ mice), the tumor response was 66%.
